Experimental data published in publication doi:10.1101/2024.08.13.607785v1 (biorxiv, 2024).

Columns and labels:
Parameters in all cases: species or system mixed lysate of K562, MV4-11, THP-1, NCI-H1155
[1] = target: Casein kinase I isoform gamma-2 ; CSNK1G2 ; P78368 (Homo sapiens, UniProt P78368); conditions: DIA-MS residual binding; binder
[2] = target: T1, Discoidin domain-containing receptor 2 ; DDR2 ; Q16832 (Homo sapiens, UniProt Q16832); conditions: binder
T1 sequence (Q16832 1-855): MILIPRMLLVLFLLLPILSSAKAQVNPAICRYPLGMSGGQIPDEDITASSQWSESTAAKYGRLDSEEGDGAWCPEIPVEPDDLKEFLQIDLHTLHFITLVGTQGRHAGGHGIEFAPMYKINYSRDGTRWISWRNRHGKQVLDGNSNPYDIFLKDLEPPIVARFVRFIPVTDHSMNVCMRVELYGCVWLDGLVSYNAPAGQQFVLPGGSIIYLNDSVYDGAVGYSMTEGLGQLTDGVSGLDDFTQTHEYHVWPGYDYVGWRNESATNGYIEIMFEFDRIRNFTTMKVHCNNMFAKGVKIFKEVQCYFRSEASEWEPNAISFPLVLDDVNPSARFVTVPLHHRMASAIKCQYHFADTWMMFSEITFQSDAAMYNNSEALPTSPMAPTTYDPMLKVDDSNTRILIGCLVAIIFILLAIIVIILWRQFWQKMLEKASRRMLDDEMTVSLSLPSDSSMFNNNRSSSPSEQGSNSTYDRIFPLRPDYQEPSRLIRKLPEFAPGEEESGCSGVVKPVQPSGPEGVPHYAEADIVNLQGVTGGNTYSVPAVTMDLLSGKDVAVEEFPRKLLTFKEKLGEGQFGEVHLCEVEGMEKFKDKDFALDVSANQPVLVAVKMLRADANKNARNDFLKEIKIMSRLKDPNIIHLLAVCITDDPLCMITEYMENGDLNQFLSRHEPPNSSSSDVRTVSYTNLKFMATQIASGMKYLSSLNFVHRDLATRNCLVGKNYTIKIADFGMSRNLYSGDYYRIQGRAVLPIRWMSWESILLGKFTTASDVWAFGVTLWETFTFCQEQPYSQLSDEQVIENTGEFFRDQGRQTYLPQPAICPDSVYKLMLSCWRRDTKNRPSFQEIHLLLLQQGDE

[3] = target: Ephrin type-A receptor 5 ; EPHA5 ; P54756 (Homo sapiens, UniProt P54756); conditions: DDA-MS residual binding; binder
[4] = target: LIM domain kinase 1 ; LIMK1 ; P53667 (Homo sapiens, UniProt P53667); conditions: DDA-MS residual binding; binder
[5] = target: Tyrosine-protein kinase Fyn ; FYN ; P06241 (Homo sapiens, UniProt P06241); conditions: DDA-MS residual binding; binder
[6] = target: T1, Discoidin domain-containing receptor 2 ; DDR2 ; Q16832; conditions: binder; remark: listed apart in the source
[7] = target: T2, Ephrin type-B receptor 2 ; EPHB2 ; P29323 (Homo sapiens, UniProt P29323); conditions: DDA-MS residual binding; binder
T2 sequence (P29323 1-1055): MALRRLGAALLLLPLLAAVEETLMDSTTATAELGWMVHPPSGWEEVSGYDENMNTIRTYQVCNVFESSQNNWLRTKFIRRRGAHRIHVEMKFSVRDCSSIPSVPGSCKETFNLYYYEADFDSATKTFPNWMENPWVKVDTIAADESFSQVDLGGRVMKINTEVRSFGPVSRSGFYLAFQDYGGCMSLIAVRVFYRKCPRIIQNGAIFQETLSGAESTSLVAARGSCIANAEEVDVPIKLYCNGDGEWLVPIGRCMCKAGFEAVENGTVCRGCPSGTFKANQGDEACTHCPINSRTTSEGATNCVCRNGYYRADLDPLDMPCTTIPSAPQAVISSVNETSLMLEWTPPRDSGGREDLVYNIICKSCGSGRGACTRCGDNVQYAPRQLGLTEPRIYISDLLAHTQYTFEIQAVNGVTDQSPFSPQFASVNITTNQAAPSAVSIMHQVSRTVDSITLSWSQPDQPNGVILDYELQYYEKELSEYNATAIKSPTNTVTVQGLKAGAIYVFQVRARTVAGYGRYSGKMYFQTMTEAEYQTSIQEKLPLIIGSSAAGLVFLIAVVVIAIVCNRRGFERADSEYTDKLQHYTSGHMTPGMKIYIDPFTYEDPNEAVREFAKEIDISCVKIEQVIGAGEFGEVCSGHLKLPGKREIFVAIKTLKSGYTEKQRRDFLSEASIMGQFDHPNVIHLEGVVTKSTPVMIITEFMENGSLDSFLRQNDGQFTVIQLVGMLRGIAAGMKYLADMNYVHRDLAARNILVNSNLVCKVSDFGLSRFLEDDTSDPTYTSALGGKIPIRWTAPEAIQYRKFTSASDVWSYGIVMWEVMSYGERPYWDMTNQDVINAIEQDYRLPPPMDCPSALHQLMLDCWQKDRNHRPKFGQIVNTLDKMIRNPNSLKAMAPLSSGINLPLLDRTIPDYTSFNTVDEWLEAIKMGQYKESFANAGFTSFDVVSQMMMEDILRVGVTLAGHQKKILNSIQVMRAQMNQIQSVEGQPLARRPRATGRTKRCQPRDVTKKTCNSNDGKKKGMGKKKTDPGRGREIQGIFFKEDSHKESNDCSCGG

[8] = target: Mitogen-activated protein kinase 14 ; MAPK14-2 ; Q16539-2 (Homo sapiens, UniProt Q16539); conditions: DDA-MS residual binding; binder
Chain of Mitogen-activated protein kinase 14 ; MAPK14-2 ; Q16539-2 (Q16539 whole entry): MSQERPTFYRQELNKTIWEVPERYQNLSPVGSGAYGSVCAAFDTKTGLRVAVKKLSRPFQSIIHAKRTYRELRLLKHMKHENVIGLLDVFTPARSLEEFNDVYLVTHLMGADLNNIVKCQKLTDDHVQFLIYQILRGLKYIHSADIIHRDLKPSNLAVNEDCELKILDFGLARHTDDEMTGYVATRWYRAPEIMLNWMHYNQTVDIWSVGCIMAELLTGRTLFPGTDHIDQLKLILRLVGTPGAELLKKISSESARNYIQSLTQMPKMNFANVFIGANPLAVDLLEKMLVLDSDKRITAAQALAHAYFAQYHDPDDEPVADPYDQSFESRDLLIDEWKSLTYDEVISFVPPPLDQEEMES

Chain of Tyrosine-protein kinase Fyn ; FYN ; P06241 (P06241 whole entry, the tested form may be a part): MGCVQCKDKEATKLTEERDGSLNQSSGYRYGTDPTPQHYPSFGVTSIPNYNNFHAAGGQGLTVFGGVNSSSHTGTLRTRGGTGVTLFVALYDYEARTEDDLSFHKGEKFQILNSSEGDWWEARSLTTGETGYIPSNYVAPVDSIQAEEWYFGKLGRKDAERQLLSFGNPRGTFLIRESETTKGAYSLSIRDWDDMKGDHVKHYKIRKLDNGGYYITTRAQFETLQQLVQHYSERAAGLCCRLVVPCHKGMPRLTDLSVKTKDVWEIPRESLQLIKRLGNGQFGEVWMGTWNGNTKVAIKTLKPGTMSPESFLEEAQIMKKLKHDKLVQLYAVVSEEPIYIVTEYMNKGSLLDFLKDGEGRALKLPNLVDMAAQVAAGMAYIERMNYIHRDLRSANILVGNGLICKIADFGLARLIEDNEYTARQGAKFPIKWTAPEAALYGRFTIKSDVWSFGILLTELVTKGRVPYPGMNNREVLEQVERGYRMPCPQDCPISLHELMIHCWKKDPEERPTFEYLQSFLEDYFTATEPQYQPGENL
Chain of Casein kinase I isoform gamma-2 ; CSNK1G2 ; P78368 (P78368 whole entry, the tested form may be a part, canonical isoform): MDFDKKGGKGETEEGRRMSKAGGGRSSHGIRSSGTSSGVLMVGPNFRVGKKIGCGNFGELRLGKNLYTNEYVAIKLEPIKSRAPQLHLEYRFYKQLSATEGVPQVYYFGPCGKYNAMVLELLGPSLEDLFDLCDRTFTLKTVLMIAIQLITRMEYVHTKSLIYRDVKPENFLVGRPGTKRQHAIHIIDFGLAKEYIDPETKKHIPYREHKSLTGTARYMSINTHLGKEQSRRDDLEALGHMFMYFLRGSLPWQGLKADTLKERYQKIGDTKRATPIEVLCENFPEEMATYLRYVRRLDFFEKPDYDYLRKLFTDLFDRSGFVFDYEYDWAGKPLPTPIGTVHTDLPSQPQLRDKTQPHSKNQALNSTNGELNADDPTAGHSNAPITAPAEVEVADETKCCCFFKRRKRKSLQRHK
Chain of LIM domain kinase 1 ; LIMK1 ; P53667 (P53667 whole entry, the tested form may be a part): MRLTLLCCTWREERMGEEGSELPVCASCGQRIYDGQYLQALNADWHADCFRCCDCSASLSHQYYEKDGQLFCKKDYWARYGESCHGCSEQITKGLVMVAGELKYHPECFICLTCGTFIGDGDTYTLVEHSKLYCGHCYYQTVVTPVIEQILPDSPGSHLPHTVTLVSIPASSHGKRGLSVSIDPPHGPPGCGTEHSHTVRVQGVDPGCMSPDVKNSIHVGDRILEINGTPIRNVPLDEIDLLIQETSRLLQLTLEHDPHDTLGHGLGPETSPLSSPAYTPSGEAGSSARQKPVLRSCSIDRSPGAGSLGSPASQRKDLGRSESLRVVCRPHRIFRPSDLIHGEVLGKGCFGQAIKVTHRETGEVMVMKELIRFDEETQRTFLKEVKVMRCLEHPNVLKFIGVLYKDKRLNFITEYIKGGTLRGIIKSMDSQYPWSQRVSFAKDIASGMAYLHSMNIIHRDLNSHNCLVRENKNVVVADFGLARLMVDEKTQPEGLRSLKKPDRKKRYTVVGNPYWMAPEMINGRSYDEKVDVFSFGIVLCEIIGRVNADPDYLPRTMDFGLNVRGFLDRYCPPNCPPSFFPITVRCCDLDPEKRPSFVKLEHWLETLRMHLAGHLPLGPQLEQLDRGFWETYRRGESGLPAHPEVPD
Chain of Ephrin type-A receptor 5 ; EPHA5 ; P54756 (P54756 whole entry, the tested form may be a part): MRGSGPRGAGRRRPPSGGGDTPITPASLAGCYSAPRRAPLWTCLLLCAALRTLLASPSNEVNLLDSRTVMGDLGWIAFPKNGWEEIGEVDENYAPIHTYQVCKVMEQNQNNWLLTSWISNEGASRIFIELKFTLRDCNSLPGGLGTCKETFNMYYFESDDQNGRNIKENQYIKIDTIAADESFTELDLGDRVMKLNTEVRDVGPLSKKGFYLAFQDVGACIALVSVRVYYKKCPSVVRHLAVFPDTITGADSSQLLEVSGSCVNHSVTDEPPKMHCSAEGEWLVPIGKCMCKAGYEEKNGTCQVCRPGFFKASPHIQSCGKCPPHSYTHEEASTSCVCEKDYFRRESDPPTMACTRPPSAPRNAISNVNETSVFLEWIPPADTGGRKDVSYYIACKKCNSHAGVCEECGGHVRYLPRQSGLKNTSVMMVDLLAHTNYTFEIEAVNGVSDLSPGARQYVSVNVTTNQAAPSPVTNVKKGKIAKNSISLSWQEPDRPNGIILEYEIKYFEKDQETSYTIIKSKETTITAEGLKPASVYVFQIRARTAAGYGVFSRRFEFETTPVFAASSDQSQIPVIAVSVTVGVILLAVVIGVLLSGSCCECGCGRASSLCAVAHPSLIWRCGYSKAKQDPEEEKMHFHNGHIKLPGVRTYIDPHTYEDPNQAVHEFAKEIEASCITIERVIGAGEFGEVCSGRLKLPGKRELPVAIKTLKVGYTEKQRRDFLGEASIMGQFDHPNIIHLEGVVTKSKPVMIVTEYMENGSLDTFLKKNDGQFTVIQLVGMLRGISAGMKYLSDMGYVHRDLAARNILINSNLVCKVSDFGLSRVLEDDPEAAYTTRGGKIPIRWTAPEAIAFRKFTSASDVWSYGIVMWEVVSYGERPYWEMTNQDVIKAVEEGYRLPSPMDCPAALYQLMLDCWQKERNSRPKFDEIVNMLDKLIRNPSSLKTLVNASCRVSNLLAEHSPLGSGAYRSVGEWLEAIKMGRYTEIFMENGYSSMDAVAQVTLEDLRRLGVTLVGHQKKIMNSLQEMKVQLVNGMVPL

**Q.** Which results are given for `Cc1nc(Nc2ncc(C(=O)Nc3c(C)cccc3Cl)s2)cc(N2CCN(CCO)CC2)n1` [dasatinib]?
**A.** DIA-MS / % Intensity (30 µM/DMSO) [1]: 45.01%; DIA-MS / % Intensity (30 µM/DMSO) [2]: 5.824%; DDA-MS / % Intensity (30 µM/DMSO) [3]: 2.68%; DDA-MS / % Intensity (30 µM/DMSO) [4]: 23.79%; DDA-MS / % Intensity (30 µM/DMSO) [5]: 1.698%; DDA-MS / % Intensity (30 µM/DMSO) [6]: 10.23%; DDA-MS / % Intensity (30 µM/DMSO) [7]: 7.218%; DDA-MS / % Intensity (30 µM/DMSO) [8]: 29.04%
